Patent publication US20050192356A1, “Synergistic anti-inflammatory pharmaceutical compositions and methods of use” (priority 2004, published 2005)
Values after ≈ are worked out from the molar mass of the structure shown. Read-outs that look alike come from different tables or passages of the source.

Test system: PGE2 synthesis in AGS cells
Test: PGE2 synthesis in the AGS human gastric mucosal cell model (A23187)
Assay type: cell-based
Method: Exponentially growing cells were seeded into 6-well plates and grown to confluence. A 20 μL aliquot of the supernatant media was sampled for determination of PGE2 content. Cells were then washed in PBS, scraped and lysed for immunoblotting.

[1] = AGS cells, historical control values, read-out: AGS IC50 for PGE2 synthesis, historical control

CC(C)Cc1ccc(C(C)C(=O)O)cc1 (centres unmarked) [Ibuprofen]
IC50 [1]: 0.57 µg/mL (≈ 2.76 µM)

CS(=O)(=O)c1ccc(C2=C(c3ccccc3)C(=O)OC2)cc1 [Rofecoxib]
IC50 [1]: 1.8 µg/mL (≈ 5.73 µM)

CC(=O)Oc1ccccc1C(=O)O [Aspirin]
IC50 [1]: 0.52 µg/mL (≈ 2.89 µM) | IC50 (AGS cells, test material 60 minutes prior to A23187, media removed 30 minutes later, average of three independent assays, read-out: AGS IC50 for PGE2 synthesis): 1.2 µg/mL (≈ 6.66 µM)

Cc1ccc(-c2cc(C(F)(F)F)nn2-c2ccc(S(N)(=O)=O)cc2)cc1 [Celcoxib]
IC50 (AGS, read-out: AGS IC50 for PGE2 synthesis, historical control): 0.024 µg/mL (≈ 0.0629 µM)
